US20030166004A1, “Endothelial-cell binding peptides for diagnosis and therapy” (priority 2001, published 2003)

Legend:
[1] = test system: bovine capillary endothelial cells (BCE); assay: BCE proliferation assay (FGF-stimulated, CyQUANT); assay type: cell-based; settings: 72 h
Experimental: (§1) We performed proliferation assays to determine the effect of the synthetic EC binding peptides on the proliferation of endothelial cells. In these assays the proliferation of bovine capillary endothelial (BCE), human microvascular endothelial (HMVEC) and human vascular endothelial cells (HUVEC) was stimulated by FGF and VEGF165 as indicated on FIG. 4. The effect of increasing concentration of synthetic EC binding peptides was measured on the proliferation of the stimulated cells. After the 72 h incubation the media was removed, the plates were washed two times with PBS and frozen at −80° C. Proliferation of the BCE cells was accessed using the CyQUANT® fluorescent cell proliferation assay kit according to the manufacturer's recommendations.
(§2) In the MSA-peptide fusions the peptide sequence was inserted into a cysteine constrained loop between amino acids 53 and 62. […]
The transfected COS7-L cells were cultured in defined serum free media (VP-SFM). […] The concentration of the albumin proteins was determined by Western blot analysis of each preparation using a rabbit anti-MSA antibody and using purified MSA of known concentration to generate a standard curve. Following development of the blot and exposure to film the autoradiographs were analyzed using the Gel Doc 1000 image analysis system and Molecular Analyst software (BioRad). […]

[2] = test system: HUVEC cells; assay: HUVEC proliferation assay (FGF-stimulated); assay type: cell-based, human
Experimental: as §1, §2
The transfected COS7-L cells were cultured in defined serum free media (VP-SFM). […] The concentration of the albumin proteins was determined by Western blot analysis of each preparation using a rabbit anti-MSA antibody and using purified MSA of known concentration to generate a standard curve. Following development of the blot and exposure to film the autoradiographs were analyzed using the Gel Doc 1000 image analysis system and Molecular Analyst software (BioRad).

Substance | inhibition of BCE proliferation (in words, active range) [1] | inhibition of HUVEC proliferation (in words, active range) [2]
MSA-myc: MSA with Myc epitope peptide EQKLISEEDL inserted between Glu 57 and Ser 58 (negative control) | did not significantly affect | did not significantly affect
MSA: full-length mouse serum albumin (negative control) | did not significantly affect | did not significantly affect
